Patent EP0103895A2, “Novel hydroxylamine derivatives, production and use thereof” (MEIJI SEIKA KABUSHIKI KAISHA, priority 1982, dated 1984)
Several values for one entry are separate records, joined by “and”; a condition that tells them apart may be missing. Equal values may be shown once.

Legend:
[1] = tested on: canine whipworm (Trichuris vulpis); assay: Anthelmintic test in naturally infected dogs with mixed infections, E.P.G. on 7th day: canine whipworm (Test Examples A3, B3, C3, D3); assay type: in vivo
Description: Three dogs with mixed infections by canine whipworm (Trichuris vulpis), canine hookworm (Ancylostoma caninum) and canine roundworm (Toxocara canis) (naturally infected dogs) were employed in a group of two and a group of one.
The compound provided for the test was Compound No.Al, and 20 mg/Kg thereof was placed in a gelatin capsule per 1 Kg of body weight, and administered orally to the two dogs. As control, only a gelatin capsule was administered orally to the one dog.
(§1) Before administration and on the 7th day after administration, fecal matter testing was conducted to calculate the E.P.G., and the anthelmintic effect was judged by the changing of the E.P.G. to negative.
As control, only gelatin capsules were administered orally to the one dog.
The same method as in Test Example A3, but the compound provided for the test was Compound No. Cl. 30 mg/Kg of this compound was placed in a gelatin capsule per 1 Kg of body weight and administered orally to the two dogs. As control, only gelatin capsules were administered orally to the one dog.

[2] = tested on: stomach worm (Haemonchus controtus); assay: Anthelmintic test against cow stomach worm in naturally infected cows, E.P.G. on 7th day (Test Examples A6, B6, C6, D6); assay type: in vivo; conditions: cows
Description: Three cows infected with stomach worm (naturally infected cows) were employed by grouping them into a group of two and a group of one.
(§2) As control, only gelatin capsules were administered orally to the one cow.
as §1, §2, §2

[3] = tested on: swine Oesophagostomum (Oesophagostomum dentatum); assay: Test of anthelmintic effect against swine Oesophagostomum in naturally infected pigs, E.P.G. on 7th day (Test Examples A8, B8, C8, D8); assay type: in vivo; conditions: pigs
Description: Six pigs infected with swine Oesophagostomum (naturally infected pigs) were employed by grouping them into groups each of two pigs.
As a control, only gelatin capsules were administered orally to the two pigs.
as §1

[4] = tested on: Diphyllobothrium erinacei; assay: Test of anthelmintic effect against Diphyllobothrium erinacei (tapeworm) in experimentally infected cats (Test Examples A5, B5, C5, D5)

In the case of `C=CCN(OC)C(C)=O` [Compound B1, N-allyl-N-acetyl-O-methylhydroxylamine], the “anthelmintic effect” value ([1]; dogs with mixed infections (Trichuris vulpis, Ancylostoma caninum, Toxocara canis; statement covers all three), one administration of 30 mg/Kg) is reported as “marked anthelmintic effect”, the “Change of E.P.G. Before administration” value ([1]; dogs, 30 mg/Kg orally once, Trichuris vulpis, baseline, one value per dog, 30 mg/kg) is reported as 5,100 E.P.G. and 2,700 E.P.G and the “Change of E.P.G. 7th day” value ([1]; dogs, 30 mg/Kg orally once, Trichuris vulpis, one value per dog) is reported as 0 E.P.G. The “Change of E.P.G. Before administration” value ([2]; 20 mg/Kg orally once, baseline, one value per cow, 20 mg/kg) was 2,500 E.P.G. and 3,300 E.P.G, the “Change of E.P.G. 7th day” value ([2]; 20 mg/Kg orally once, one value per cow) was 0 E.P.G and the “anthelmintic effect” value ([2]; one administration of 20 mg/Kg) was “marked anthelmintic effect”. The “Change of E.P.G. Before administration” value ([3]; 20 mg/Kg orally once, baseline, one value per pig, 20 mg/kg) was 1,200 E.P.G. and 2,600 E.P.G, the “Change of E.P.G. 7th day” value ([3]; 20 mg/Kg orally once, one value per pig) was 0 E.P.G and the “anthelmintic effect” value ([3]; one administration of 20 mg/Kg) was “marked anthelmintic effect”. The “Number of worm bodies remaining in enteron” value ([4]; cats infected with 5 plerocercoids, 50 mg/Kg x 5 times orally, autopsy ten days after administration, one value per cat) was 0, the “Worm egg detection on 10th day after administration” value ([4]; cats, 50 mg/Kg x 5 orally, one value per cat (Table B7)) was “-” and the “anthelmintic effect” value ([4]; cats, 5 continuous administrations of 50 mg/Kg) was “marked anthelmintic effects”.
